Like-named read-outs stand apart in the source and are kept apart here.
Key:
[1] = test system: IFNα-induced CXCL10 production in human whole blood; assay: IFNα-induced CXCL10 production in human whole blood; format: cell-based
Protocol: Human whole blood [drawn with Ethylenediaminetetraacetic acid (EDTA) as anti-coagulant] was obtained from Zen-Bio Inc. (Durham, NC). […] The plasma was collected for detection of C-X-C motif chemokine 10 (CXCL10, IP10) secretion. CXCL10 was measured by Human CXCL10/IP-10 AlphaLISA Kit (PerkinElmer, #AL259 C/F) according to the manufacturer’s instructions.

[2] = test system: IL12-induced IFNγ production in human PBMCs; assay: IL12-induced IFNγ production in human PBMCs; format: cell-based; settings: PBMC, IL12 overnight, read-out: TYK2-associated IL12-induced-IFNγ Production in Human PBMCs: IC50
Protocol: Human PBMC samples were obtained from iQ Biosciences, CA. 1.0 × 10^6/mL PBMCs were seeded in complete RPMI at a sterilized U-shaped 96-well plate with a volume of 200 μL/well. PBMCs were treated by serially-diluted test compounds, and incubated with 40 ng/mL recombinant human IL12 (Biolegend, #573002) for overnight in a humidified, 5% CO2 cell culture incubator at 37°C. The supernatant was then collected for detection of IFNγ secretion. IFNγ level was measured by Human IFNγ AlphaLISA Kit (PerkinElmer, AL217C/F) according to the manufacturer’s instructions.

[3] = test system: JAK1-dependent IL6-induced phosphorylation of STAT3 (Tyr705) in TF1 cells; assay: JAK cellular selectivity assay, IL6-pSTAT3 (JAK1); format: cell-based; settings: Homo sapiens, TF-1, read-out: JAK Cellular Selectivity (IC50) IL6-pSTAT3 (JAK1)
Protocol: (§1) The cells were then ready for the assay after incubating for 2 hours in a humidified, 5% CO2 cell culture incubator at 37°C. […] The curve fit was generated, and statistical analysis was performed using GraphPad Prism. IC50 values were derived by non-linear regression analysis and defined as the compound concentration at which the response level was reduced to half of its maximum relative to a DMSO control.

[4] = test system: JAK2-dependent EPO-induced phosphorylation of STAT5 (Tyr694/699) in TF1 cells; assay: JAK cellular selectivity assay, EPO-pSTAT5 (JAK2); format: cell-based, human
Protocol: as §1

[5] = test system: JAK1/3-dependent IL2-induced phosphorylation of STAT5 (Tyr694/699) in Kit225 cells; assay: JAK cellular selectivity assay, IL2-pSTAT5 (JAK1/3); format: cell-based; settings: Homo sapiens, KIT225, read-out: JAK Cellular Selectivity (IC50) IL2-pSTAT5 (JAK1/3)
Protocol: as §1

[6] = test system: IL23-induced-IL17 production in mouse splenocytes; assay: IL23-induced IL17 production in mouse splenocytes; format: cell-based; settings: Splenocyte; IL23-stimulated mouse splenocytes; read-out: mIL17 IC50
Protocol: (§2) generated by non-linear regression analysis to determine the IC50 values of compounds using […]
(Monkey, Canine, Rat and Mouse)
(A) Suppression of IL23-induced-IL17 production in mouse splenocytes by TYK2 JH2 ligands, […]
(§3) JH2 ligands, SHR2915, 0936, 1039 and 1213, in mouse splenocytes (B), Canine PBMCs (C), Rat PBMCs (D) and Macaque PBMCs (E). Inhibition data were calculated by comparison to vehicle […]
(§4) response curves were then generated to determine the IC50 values as derived by non-linear regression analysis using GraphPad Prism. […]

[7] = test system: IL12-induced-IFNg production in mouse splenocytes; assay: IL12-induced IFNγ production in mouse splenocytes; format: cell-based; settings: Splenocyte
[8] = test system: IL12-induced-IFNg production in Canine PBMCs; assay: IL12-induced IFNγ production in canine PBMCs; format: cell-based; settings: Canis lupus familiaris, PBMC
Protocol: as §2
(§5) (Monkey, Canine, Rat and Mouse) […]
as §3, §4

[9] = test system: IL12-induced-IFNg production in Rat PBMCs; assay: IL12-induced IFNγ production in rat PBMCs; format: cell-based; settings: PBMC
Protocol: as §2, §5, §3, §4

[10] = test system: IL12-induced-IFNg production in Macaque PBMCs; assay: IL12-induced IFNγ production in macaque PBMCs; format: cell-based, Macaque (Cyno Monkey); settings: Primates, PBMC, read-out: IL12-induced-IFNg, IC50, Monkey
Protocol: as §2, §5, §3, §4

[11] = test system: IFNα-induced TYK2/phosphoSTAT1 (Tyr701) in Kit225 T cells; assay: Kit225 T cell assay for IFNα-induced TYK2/phosphoSTAT1 activity; format: cell-based, human; settings: Kit225 cells, 80 ng/mL IFNα, AlphaLISA; read-out: IC50 IFNα-induced-STAT1 Phosphorylation
Protocol: (§6) The cells were treated with serially diluted compounds for 1 hour and stimulated with 80 ng/mL human recombinant IFNα (R&D Systems) for 15 minutes. The treated cells were then lysed and cellular phosphorylated-STAT1 (Tyr701) levels were measured by AlphaLISA (PerkinElmer, Cat#ALSU-PST1) according to the manufacturer’s instructions.

[12] = test system: IL23-induced TYK2/phosphoSTAT3 (Tyr705) in Kit225 T cells; assay: Kit225 T cell assay for IL23-induced TYK2/phosphoSTAT3 activity; format: cell-based, human; settings: Kit225 cells, 100 ng/mL IL23, AlphaLISA; read-out: IC50 IL23-induced-STAT3 Phosphorylation
Protocol: as §6, with “100” for “80”, “IL23” for “IFNα”, “20” for “15”, “phosphorylated-STAT3 (Tyr705)” for “phosphorylated-STAT1 (Tyr701)”, “Cat# ALSU-PST3)” for “Cat#ALSU-PST1)”

[13] = test system: moderate to severe psoriasis patients; parameters: method as in PMID 30205746; settings: phase II, 267 patients; cited from earlier work

Work on `CNC(=O)c1nnc(Nc2ccc(N3CCC3)cn2)cc1Nc1cccc(-c2ncn(C)n2)c1OC` [SHR2915] yielded an IC50 ([1]; Homo sapiens, 16 h, read-out: TYK2-associated IFNα-induced-CXCL10 Production in Human Whole Blood: IC50) of 160 nM, an IC50 [2] of 45 nM and an IC50 [3] of 200 ± 11 nM. The IC50 ([4]; Homo sapiens, TF-1, read-out: JAK Cellular Selectivity (IC50) EPO-pSTAT5 (JAK2)) was greater than 10000 nM, the IC50 [5] was 2300 ± 970 nM and the IC50 [6] was 11 nM. The IC50 [7] was 60 nM, the IC50 [8] was 33 nM and the IC50 [9] was 3 nM. It also gave an IC50 [10] of 14 nM.

In the case of Deucravacitinib, the IC50 [11] is reported as 8.5 nM, the IC50 [12] is reported as 5 nM and the IC50 ([1]; Donor 1, read-out: IFNa-induced-CXCL10 Production in Human Whole Blood IC50, Donor 1) is reported as 110 nM. For the same compound, the IC50 ([1]; Donor 2, read-out: IFNa-induced-CXCL10 Production in Human Whole Blood IC50, Donor 2) was 94 nM, the IC50 ([1]; Donor 3, read-out: IFNa-induced-CXCL10 Production in Human Whole Blood IC50, Donor 3) was 83 nM and the IC50 ([1]; average of Donor 1-3, read-out: IFNa-induced-CXCL10 Production in Human Whole Blood IC50, Average) was 96 nM. For the same compound, the IC50 ([4]; TF1 cells, read-out: JAK Cellular Selectivity (IC50) EPO-pSTAT5 (JAK2)) was greater than 10000 nM and the “Daily dose at which clinically effective” value [13] was no less than 3 mg.

Source: PMC9186491, “Novel Small Molecule Tyrosine Kinase 2 Pseudokinase Ligands Block Cytokine-Induced TYK2-Mediated Signaling Pathways” (Frontiers in Immunology, 2022)
